Each block holds one compound with its values, some of them ahead of it.
Assay: gradient 5% acetonitrile 3 min, to 50% in 2 min, to 85% in 15 min, held 3 min, 100 µL/min
Conditions: column: Zorbax Extend-C18 2.1 x 50 mm; eluents: water / acetonitrile, 0.1% formic acid
How it was run: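 The mobile phases were water and acetonitrile, each with 0.1% formic acid, pumped at 100 μL/min through a Zorbax Extend-C18 column (2.1 × 50 mm, 1.8 μm). Pure standards were injected as mixtures of ~100 molecules and detected by a quadrupole time-of-flight mass spectrometer in positive and negative ionization mode. Retention time came from computationally picked adduct peaks, each inspected by hand.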

SMILES: Cc1cc(C)c(C(=O)N2CCC(CC(=O)NCc3ccc4c(c3)OCO4)CC2)[nH]1
- RP-LC retention time: 724 s

SMILES: COc1ccc(C(=O)Nc2cccc(-c3csc(C)n3)c2)nn1
- RP-LC retention time: 586 s

SMILES: CC1CCN(S(=O)(=O)c2ccc3c(c2)CCCC(=O)N3CC(=O)N2CCc3ccccc32)CC1
- RP-LC retention time: 1030 s

SMILES: COCCc1noc(C2CN(S(=O)(=O)c3cccc(F)c3)C2)n1
- RP-LC retention time: 784 s

SMILES: CCc1nc(-c2csc(S(=O)(=O)N3CCCC(C(=O)NCc4ccccc4Cl)C3)c2)no1 (configuration not stated)
- RP-LC retention time: 1050 s

SMILES: COc1ccc(-c2nc3cnccn3c2Nc2ccc3c(c2)OCCO3)cc1OC
- RP-LC retention time: 717 s

SMILES: Cc1c(C(=O)N2CCN=C2SCc2cccnc2)cccc1[N+](=O)[O-]
- RP-LC retention time: 577 s

SMILES: Cc1ccc(NC(=O)C2CC(=O)N(c3n[nH]c4ccccc34)C2)nc1 (configuration not stated)
- RP-LC retention time: 594 s

SMILES: COCCN1CCn2cc(S(=O)(=O)Nc3cccc(Cl)c3)cc2C1=O
- RP-LC retention time: 718 s

SMILES: COc1ccc2c(c1)N(CC(C)CN(C)C)c1ccccc1S2 (configuration not stated)
- RP-LC retention time: 804 s

SMILES: COc1ccc(CC(=O)NC2CCN(c3cc(-c4ccc(Cl)cc4)[nH]n3)C2)cc1OC (configuration not stated)
- RP-LC retention time: 728 s

SMILES: COc1cc(NC(=O)Cc2csc3nc(-c4cccc(Br)c4)cn23)cc(OC)c1
- RP-LC retention time: 974 s

SMILES: COc1ccc(NC(=O)N2CCC(n3c(-c4ccco4)nc4cccnc43)C2)cc1 (configuration not stated)
- RP-LC retention time: 708 s

SMILES: CCc1noc2nc(CCC(=O)NCCCN3CCCC(C)C3)nc(N3CCCCC3)c12 (configuration not stated)
- RP-LC retention time: 673 s

SMILES: Cc1nn(-c2nc(CC(=O)N3CCC(C)CC3)cs2)c(C)c1Cl
- RP-LC retention time: 1190 s

SMILES: Cc1cc(N2CCCCC2)nc(N2CCN(C(=O)CC3CCCC3)CC2)n1
- RP-LC retention time: 738 s

SMILES: Cc1ccc(CNC(=O)N2CCC(C(=O)NCc3csc(C)n3)CC2)cc1
- RP-LC retention time: 661 s

SMILES: CNC(=O)c1cc(C)nc2ccc(C(C)C)cc12
- RP-LC retention time: 596 s

SMILES: c1ccc(-c2nc(-c3cnccn3)no2)c(OC2CCNC2)c1 (configuration not stated)
- RP-LC retention time: 615 s

SMILES: CCCCC(=O)N1CCCN(C2=NS(=O)(=O)C(c3ccc(F)cc3)=C2C)CC1
- RP-LC retention time: 825 s

Next, values leading:

- RP-LC retention time: 644 s
SMILES: CCNC(=O)c1nc(-c2ccnc(N3CCOCC3)c2)no1

- RP-LC retention time: 680 s
SMILES: O=C(NCc1cccc(C(F)(F)F)c1)C1(CCO)CCN(Cc2ccccc2)C1 (configuration not stated)

- RP-LC retention time: 826 s
SMILES: Cc1ccc(F)c(Nc2ncccc2S(N)(=O)=O)c1

- RP-LC retention time: 682 s
SMILES: CN(C)CC[C@@H](c1ccc(Br)cc1)c1ccccn1

- RP-LC retention time: 736 s
SMILES: CCOC(=O)CNC(=O)CSc1nnc(NC(=O)c2nc3ccccc3s2)s1

- RP-LC retention time: 622 s
SMILES: CCCN1CCN(S(=O)(=O)c2cc(-c3nnc(C4CCC4)o3)co2)CC1

- RP-LC retention time: 782 s
SMILES: COc1ccc(OCc2nc(CCN(C)C(=O)c3ccco3)no2)cc1

- RP-LC retention time: 1160 s
SMILES: CC(C)CC(=O)Nc1ccc(S(=O)(=O)N2CCCC2c2nc(-c3ccc(Cl)cc3)no2)cc1 (configuration not stated)

- RP-LC retention time: 640 s
SMILES: O=C(Cn1ncc2c(N3CCN(c4ccccn4)CC3)ncnc21)Nc1ccc(Cl)cc1F

- RP-LC retention time: 833 s
SMILES: COc1ccc(CCNc2nc(N3CCc4cc(OC)c(OC)cc4C3)c3cc(OC)c(OC)cc3n2)cc1OC

- RP-LC retention time: 646 s
SMILES: CS(=O)(=O)N1CCC(C(=O)Nc2nnc(-c3ccc4c(c3)OCCO4)o2)CC1

- RP-LC retention time: 616 s
SMILES: O=C(c1ccc(Br)cc1)N1CCN(C(=O)c2cc(-c3ccncc3)n[nH]2)CC1

- RP-LC retention time: 576 s
SMILES: Cc1cc2n(n1)CCC(=O)N2CCCC(=O)NCCN(C)C1CCCCC1

- RP-LC retention time: 880 s
SMILES: COCCn1nnnc1C1CC2(CCOCC2)C(=O)N1CCc1ccc(Cl)cc1 (configuration not stated)

- RP-LC retention time: 758 s
SMILES: Cc1cccc(NC(=O)CSc2nc(N3CCCCC3)nc3ccccc23)c1

- RP-LC retention time: 804 s
SMILES: COc1ccc(Cn2nc3c(S(=O)(=O)N4CCCC4)cccn3c2=O)cc1

- RP-LC retention time: 1110 s
SMILES: CCSc1nc2ccc(NS(=O)(=O)c3ccc(C)cc3C)cc2s1

Reference: the METLIN SMRT retention time set (Domingo-Almenara et al. 2019)
